Test results: PubChem BioAssay (NCI)
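96-well plates; 48 h exposure; 5 concentrations. Endpoints by linear interpolation between flanking doses. Not reached: highest tested concentration assigned. TGI: total growth inhibition.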

What was measured:
Assay in all cases: NCI-60 cell line screen, 48 h
RPMI-8226 leukemia = system: RPMI-8226 leukemia
T-47D breast = system: T-47D breast
HCC-2998 colon = system: HCC-2998 colon
IGROV1 ovarian = system: IGROV1 ovarian
A549 NSCLC = system: A549 NSCLC
HL-60(TB) leukemia = system: HL-60(TB) leukemia
NCI-H460 lung = system: NCI-H460 lung
HT29 colon = system: HT29 colon
SK-OV-3 ovarian = system: SK-OV-3 ovarian
OVCAR-3 ovarian = system: OVCAR-3 ovarian

Row | SMILES | TGI (RPMI-8226 leukemia) [µM] | TGI (T-47D breast) [µM] | TGI (HCC-2998 colon) [µM] | TGI (IGROV1 ovarian) [µM] | TGI (A549 NSCLC) [µM] | TGI (HL-60(TB) leukemia) [µM] | TGI (NCI-H460 lung) [µM] | TGI (HT29 colon) [µM] | TGI (SK-OV-3 ovarian) [µM] | TGI (OVCAR-3 ovarian) [µM]
1 | C=CC1(CBr)CCC(C(C)(C)Br)O1 (stereo unspecified) | 6.11 | 15.5 | 30.5 | 22.7 | 33.9 | 0.893 | 27.7 | 14.4 | 29 | 22.6
2 | CC1(C)N=C(N)N=C(N)N1c1ccc(CCCCc2ccc(Cl)cc2Cl)cc1 | 19.2 | 23.9 | 17.4 | 10 | 14.7 | > 100 | 2.48 | 13 | 24.7 | 5.5
3 | COC(=O)[C@H]1ON2O[C@@H](O[C@H]3CCCC[C@@H]3C(C)(C)c3ccccc3)C[C@@H]3CC[C@H]1[C@@]32C | > 100 | > 100 | > 100 | > 100 | > 100 | > 100 | > 100 | > 100 | > 100 | > 100
4 | N#C[C@](CO)(NC(=O)OCc1ccccc1)C(F)F | > 100 | > 100 | > 100 | > 100 | > 100 | > 100 | > 100 | > 100 | > 100 | > 100
5 | O=S(=O)(O)Nc1ccc(-c2nc3ccccc3s2)cc1Cl | > 100 | > 100 | > 100 | > 100 | > 100 | > 100 | > 100 | > 100 | > 100 | > 100
6 | C=CCN1C(=O)/C(=C/c2cccs2)N=C1SC1OC(COC(=O)c2ccccc2)C(OC(=O)c2ccccc2)C1OC(=O)c1ccccc1 (stereo unspecified) | > 100 | – | > 100 | > 100 | – | > 100 | > 100 | – | > 100 | > 100
7 | COc1cc(/C=C/C(=O)O)ccc1O | > 100 | > 100 | > 100 | > 100 | > 100 | > 100 | > 100 | > 100 | – | > 100
8 | Nc1ccccc1Sc1ccc(Cl)cc1 | 67.9 | – | > 100 | > 100 | > 100 | 53.3 | 68.9 | 36.3 | > 100 | 72.1
9 | COC(=O)c1cc(C)ccc1CC(Cc1ccccc1C)C(=O)OC (stereo unspecified) | – | > 100 | > 100 | > 100 | > 100 | 36.3 | > 100 | 94.2 | > 100 | > 100
10 | C=C1CC(CNc2cc(Cl)nc(N)n2)C1 | > 100 | – | > 100 | > 100 | > 100 | > 100 | > 100 | > 100 | > 100 | > 100
11 | CC1CSc2nc3[nH]c(=S)[nH]c3c(=O)n2C1 (stereo unspecified) | > 100 | > 100 | > 100 | > 100 | > 100 | > 100 | > 100 | – | > 100 | > 100
12 | COc1cccc2c1C(=O)c1ccc3cc(CO)cc(O)c3c1C2=O | 5.1 | 4.96 | – | 3.33 | 2.76 | 0.461 | 1.17 | 3.9 | 8.61 | 0.497
13 | C=CCOc1ccc(C2c3c([nH][nH]c3=O)CC(C)(O)C2C(=O)OC)cc1OC (stereo unspecified) | > 100 | > 100 | > 100 | > 100 | > 100 | > 100 | > 100 | > 100 | – | > 100
14 | CC1(C)OC[C@@]2([C@@H]3CC[C@@H](C3)C2(C)C)N1O | > 100 | > 100 | – | > 100 | > 100 | > 100 | > 100 | > 100 | > 100 | > 100
15 | CCOC(=O)c1c(NC(=O)c2ccccc2)sc2c1CCC2 | > 100 | > 100 | – | > 100 | > 100 | > 100 | > 100 | > 100 | – | > 100
16 | O/N=C1\CC2(N3CCOCC3)CCC1(Cc1ccccc1)CC2 | – | > 100 | > 100 | > 100 | > 100 | > 100 | > 100 | > 100 | 83 | > 100
17 | c1ccc2c(Cc3c[nH]c4ccccc34)c[nH]c2c1 | 68.8 | 63.7 | – | 30.7 | 57 | 33.4 | 40.5 | 30.2 | 51 | 30.8
18 | CC(=O)/C=C/c1c[nH]c(=O)[nH]c1=O | 679 | – | 480 | 861 | 1090 | 528 | 613 | 847 | 703 | 608
19 | COc1ccc(/C=N/n2c(Cc3ccc(Cl)cc3)n[nH]c2=O)cc1 | > 100 | > 100 | > 100 | 48 | > 100 | – | > 100 | 28.2 | > 100 | > 100
20 | c1ccc(-c2cc(-c3cc(-c4ccccc4)n[nH]3)[nH]n2)cc1 | – | > 100 | > 100 | > 100 | > 100 | – | > 100 | > 100 | > 100 | > 100
21 | C=CCC1(O)c2cccc(O)c2C(=O)c2cccc(O)c21 (stereo unspecified) | 76.1 | 30.2 | 30.3 | > 100 | 88.1 | 34.2 | 48 | 64.1 | – | 59.7
22 | COc1ccc(S(=O)Cc2cc(OC)ccc2OC)cc1 (stereo unspecified) | – | > 100 | > 100 | > 100 | > 100 | – | > 100 | > 100 | > 100 | > 100
23 | CSc1nc(-c2cc3c(c(SC)n2)CCC3)cc2c1CCC2 | > 100 | – | > 100 | – | > 100 | > 100 | > 100 | > 100 | > 100 | > 100
